Calls of active or inactive are those of the source. The rule behind the calls is not given here.
Experiments:
Chorioallantoic membrane = test: Antiangiogenic activity in Leghorn chicken fertilized egg chorioallantoic membrane assessed as reduction in VEGF stimulated neovascularization at 10 uM measured after 3 days by CAM assay; assay type: functional, tissue-based; details: Gallus gallus, time 3.0 day
Ephrin type-B receptor 2 = molecular target: T1, Ephrin type-B receptor 2 (Mus musculus, UniProt P54763); test: Displacement of biotinylated ephrin-B1-Fc from mouse EphB2 Fc preincubated for 1 hr followed by ephrin-B1-FC addition and measured after 4 hrs by ELISA
T1 sequence (P54763 whole entry): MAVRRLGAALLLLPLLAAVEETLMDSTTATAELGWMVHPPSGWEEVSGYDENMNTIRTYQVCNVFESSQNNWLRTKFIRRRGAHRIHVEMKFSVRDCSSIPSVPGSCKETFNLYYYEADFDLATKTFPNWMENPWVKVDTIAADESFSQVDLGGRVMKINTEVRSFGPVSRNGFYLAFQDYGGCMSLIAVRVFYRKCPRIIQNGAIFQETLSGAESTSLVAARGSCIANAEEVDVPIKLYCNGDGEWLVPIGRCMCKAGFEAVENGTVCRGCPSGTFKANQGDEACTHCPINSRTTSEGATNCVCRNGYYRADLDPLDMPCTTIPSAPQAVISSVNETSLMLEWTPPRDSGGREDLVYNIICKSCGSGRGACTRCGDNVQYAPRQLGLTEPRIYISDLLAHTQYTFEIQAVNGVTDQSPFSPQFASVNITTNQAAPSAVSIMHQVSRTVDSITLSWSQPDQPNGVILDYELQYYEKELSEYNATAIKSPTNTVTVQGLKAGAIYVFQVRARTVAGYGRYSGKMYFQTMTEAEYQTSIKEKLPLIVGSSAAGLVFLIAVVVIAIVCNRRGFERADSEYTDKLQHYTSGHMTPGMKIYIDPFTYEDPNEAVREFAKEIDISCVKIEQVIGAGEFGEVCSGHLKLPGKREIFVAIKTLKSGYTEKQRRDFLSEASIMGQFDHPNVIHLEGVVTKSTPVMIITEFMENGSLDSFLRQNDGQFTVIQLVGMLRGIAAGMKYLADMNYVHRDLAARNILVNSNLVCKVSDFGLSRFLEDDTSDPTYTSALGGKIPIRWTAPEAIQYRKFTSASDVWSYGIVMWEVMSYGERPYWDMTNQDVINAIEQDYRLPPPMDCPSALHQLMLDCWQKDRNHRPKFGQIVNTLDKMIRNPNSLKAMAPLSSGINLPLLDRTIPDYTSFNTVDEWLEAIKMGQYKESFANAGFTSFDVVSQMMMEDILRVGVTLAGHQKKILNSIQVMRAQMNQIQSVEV

Ephrin type-B receptor 6 = molecular target: T2, Ephrin type-B receptor 6 (Mus musculus, UniProt O08644); test: Displacement of biotinylated ephrin-B1-Fc from mouse EphB6 Fc preincubated for 1 hr followed by ephrin-B1-FC addition and measured after 4 hrs by ELISA
T2 sequence (O08644 whole entry): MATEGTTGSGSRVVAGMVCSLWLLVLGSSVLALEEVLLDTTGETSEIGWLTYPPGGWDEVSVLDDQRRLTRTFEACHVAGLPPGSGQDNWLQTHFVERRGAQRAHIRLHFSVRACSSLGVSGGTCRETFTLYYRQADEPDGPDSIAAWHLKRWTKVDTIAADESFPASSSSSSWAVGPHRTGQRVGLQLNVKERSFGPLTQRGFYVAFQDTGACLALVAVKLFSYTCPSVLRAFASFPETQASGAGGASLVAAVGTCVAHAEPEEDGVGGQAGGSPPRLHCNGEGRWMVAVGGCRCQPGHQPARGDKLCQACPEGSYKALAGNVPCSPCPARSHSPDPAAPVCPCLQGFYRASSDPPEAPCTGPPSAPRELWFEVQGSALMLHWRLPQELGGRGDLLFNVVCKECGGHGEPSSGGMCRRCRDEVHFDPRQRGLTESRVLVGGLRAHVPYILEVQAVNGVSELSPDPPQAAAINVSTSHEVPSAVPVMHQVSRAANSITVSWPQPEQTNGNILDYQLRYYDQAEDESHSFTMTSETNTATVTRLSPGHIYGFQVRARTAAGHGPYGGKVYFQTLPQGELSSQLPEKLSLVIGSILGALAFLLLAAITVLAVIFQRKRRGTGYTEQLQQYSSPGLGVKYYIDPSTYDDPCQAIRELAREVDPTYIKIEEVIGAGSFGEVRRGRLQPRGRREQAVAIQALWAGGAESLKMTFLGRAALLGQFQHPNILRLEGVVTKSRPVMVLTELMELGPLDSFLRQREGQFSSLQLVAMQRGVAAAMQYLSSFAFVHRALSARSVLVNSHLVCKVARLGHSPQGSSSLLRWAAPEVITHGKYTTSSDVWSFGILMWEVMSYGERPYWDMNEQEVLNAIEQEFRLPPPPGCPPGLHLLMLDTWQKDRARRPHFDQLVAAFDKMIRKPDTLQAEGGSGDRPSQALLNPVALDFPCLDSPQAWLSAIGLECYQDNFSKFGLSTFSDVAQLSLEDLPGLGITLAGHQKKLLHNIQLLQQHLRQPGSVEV

Compound: CCNC(=O)O[C@@H]1CC[C@@]2(C)[C@H](CC[C@@H]3[C@@H]2CC[C@]2(C)[C@@H]([C@H](C)CCC(=O)N[C@H](CC(=O)O)Cc4c[nH]c5ccccc45)CC[C@@H]32)C1
- Activity (Chorioallantoic membrane): Active
- IC50 (Ephrin type-B receptor 2): 14 µM
- IC50 (Ephrin type-B receptor 6): > 30 µM

— ChEMBL document CHEMBL4680187, “Optimization of EphA2 antagonists based on a lithocholic acid core led to the identification of UniPR505, a new 3α-carbamoyloxy derivative with antiangiogenetic properties” (Eur J Med Chem, 2020)
